Entries after “also recorded” stand apart in the source; their conditions may differ.
Columns and labels:
P493 cells [1] = assay: Conversion of 13C-glucose to 13C-lactate; format: cell-based, human
Description: In addition to oxidative stress induced by inhibition of LDHA, it was determined how FX11 affects cellular energy metabolism. […].

P493 cells [2] = assay: Oxygen consumption, Clark-type oxygen electrode; format: cell-based, human; conditions: FX11 treatment
Description: Oxygen consumption was measured using a Clark-type oxygen electrode (Oxytherm System, Hansatech Instruments Ltd). 5×10^6 cells in 1 ml medium were placed in the chamber above a membrane which is permeable to oxygen. Oxygen diffuses through the membrane and is reduced at the cathode surface so that a current flows through the circuit which is completed by a thin layer of KCl solution. The current which is generated bears a direct, stoichiometric relationship to the oxygen reduced, and is converted to a digital signal. Determinations were done in triplicate, and the entire experiment was done twice.

[3] = test system: human glioblastoma U-87-MG cells; assay: Cell growth; format: cell-based
P493 cells [4] = assay: Mitochondrial membrane potential by JC-1 flow cytometry; format: cell-based, human; conditions: 9 μM FX11 or/and FK866, 24 hours
Source text: The lipophilic cation dye (5,5′,6,6′-tetrachloro-1,1′,3,3′-tetraethylbenzimidazolcarbocyanine iodide, JC-1) (Invitrogen) was used to detect the loss of the mitochondrial membrane potential. The negative charge established by the intact mitochondrial membrane potential lets the lipophilic dye stain the mitochondria bright red which emits in channel 2 (FL2). When the mitochondrial membrane potential collapses, JC-1 remains in the cytoplasm in a green fluorescent monomeric emission in channel 1 (FL1). JC-1 reversibly changes its color from green to orange as membrane potentials increase (over values of 80-100 mV). 10^5 cells/ml were treated with 9 μM FX11 or/and FK866 for 24 hours. Stained cells were analyzed in FACScan flow cytometers (BD Bioscience).

P493 cells [5] = assay: NADH/NAD+ ratio colorimetric assay; format: cell-based, human; conditions: 9 μM FX11, 24 hours
Description: The NADH/NAD^+ ratios were assayed using EnzyChrom™ NADH/NAD^+ colorimetric Assay Kit, from BioAssay Systems. This assay is based on an enzyme-catalyzed kinetic reaction where a tetrazolium dye 3-[4,5-dimethylthiazol-2-yl]-2,5-diphenyltetrazolium bromide (MTT) is reduced by NADH in the presence of phenazine methosulfate (PMS). The intensity of the reduced product color, measured at 565 nm, is proportionate to the NADH/NAD^+ concentration in the sample. […] After washing with cold PBS, cells were homogenized in 100 μl of NAD^+ or NADH extraction buffer. Following heat extract at 60° C. for 5 minutes, the assay was performed according to the manufacturer's instructions.

AMP kinase (AMPK) = assay: Immunoblot of phospho-AMPK; format: cell-based, human; conditions: 20 hours of exposure
[6] = test system: human pancreatic cell line E3LZ10.7; assay: Cell growth; format: cell-based
LDHA = LDHA (Homo sapiens, UniProt P00338); conditions: cited from earlier work
P493 cells [7] = assay: ATP levels, luciferin-luciferase-based assay; format: cell-based, human; conditions: 9 μM FX11 or 0.5 nM FK866, 20 hours
Description: P493 cells were treated with 9 μM FX11 or 0.5 nM FK866 for 20 hours and counted. ATP levels were determined by luciferin-luciferase-based assay (Promega) on aliquots containing equal number of cells according to standard protocol.

[8] = Solubility in aqueous solution; format: physicochemical; conditions: relative to the 42 μg dose
Description: (§1) Although the renewed interest in the Warburg effect is accompanied by a greater understanding of its molecular underpinnings, targeting it for therapeutic purposes has become a major challenge. […] Of note, primary human lymphomas have been documented to have elevated LDHA expression particularly in hypoxic regions. […] A desired FX11 dose of 42 μg for daily intraperitoneal (IP) injection was calculated. An initial serum level of ˜100 μM was expected, assuming a uniform and immediate distribution in the vascular system without accounting for the drug half-life or drug metabolism.

[9] = Side effects, hematology and blood chemistry in treated animals
[10] = target: purified human liver LDHA (Homo sapiens, UniProt P00338); assay: Determination of Ki and enzyme kinetics of LDHA; conditions: NADH as substrate; Lineweaver-Burk plots
Description: (§2) The reaction velocity of purified human LDHA or GAPDH was determined by a decrease or increase in absorbance at 340 nm of NADH, respectively. […] The GADPH activity was assessed using the protocol described in Worthington Enzyme Manual: http://www.worthington-biochem.com/GAPD/assay.html with varying concentrations of NAD^+. Ki values were determined from double-reciprocal plots by linear regression analysis using SigmaPlot Enzyme Kinetic software.

[11] = Expected initial serum level after IP injection; format: in vivo; conditions: 42 μg IP; assuming uniform and immediate distribution in the vascular system
Description: as §1

[12] = test system: P198 human pancreatic cancer xenografts; assay: Human P198 pancreatic cancer xenograft; format: in vivo, athymic nu mice; conditions: treatment from 200 mm^3; daily IP 42 μg FX11; compared with E
Description: The animal studies were performed according to the protocols approved by the Animal Care and Use Committee at Johns Hopkins University. In order to generate tumorigenesis study in xenograft model, 2.0×10^7 P493 human lymphoma B cells or 5×10^6 human pancreatic cancer cells were injected subcutaneously into male SCID mice (NCI) or athymic Hsd: RH-Foxn1nu mice (Harlan), respectively, as previously described (Feldmann et al., 2007; Gao et al., 2009; Gao et al., 2007). When the tumor volume reached 200 mm^3, groups of 5 mice were injected with control 2% DMSO or 42 μg FX11 and/or 100 μg FK866. The tumor volumes were measured using a digital caliper after 4, 7 and 10 days of treatment. Tumor volumes were calculated using the following formula: [length (mm)×width (mm)×width (mm)×0.52]. The entire experiment was repeated seven times.

P493 cells [13] = assay: ROS measurement by DCFDA flow cytometry; format: cell-based, human; conditions: 9 μM FX11 or FK866, 24 hours
Description: The measurement of intracellular ROS production was measured by staining cells with 5-(and-6)-carboxy-2′,7′-dichlorodihydrofluorescein diacetate (carboxy-H2DCFDA; Molecular Probes) according to the manufacturer's instructions. 10^5 cells/ml were treated with 9 μM FX11 or FK866 for 24 hours. Stained cells were analyzed in FACScan flow cytometers (BD Bioscience).

GAPDH = GAPDH (Homo sapiens, UniProt P04406); assay: GAPDH activity and Ki; format: biochemical
Description: as §2

P493 cells [14] = assay: Annexin V / 7-AAD cell death assay; format: cell-based, human; conditions: 24 hours of FX11 treatment
[15] = test system: human pancreatic cell line P10; assay: Cell growth; format: cell-based

GAPDH, sequence (P04406 whole entry): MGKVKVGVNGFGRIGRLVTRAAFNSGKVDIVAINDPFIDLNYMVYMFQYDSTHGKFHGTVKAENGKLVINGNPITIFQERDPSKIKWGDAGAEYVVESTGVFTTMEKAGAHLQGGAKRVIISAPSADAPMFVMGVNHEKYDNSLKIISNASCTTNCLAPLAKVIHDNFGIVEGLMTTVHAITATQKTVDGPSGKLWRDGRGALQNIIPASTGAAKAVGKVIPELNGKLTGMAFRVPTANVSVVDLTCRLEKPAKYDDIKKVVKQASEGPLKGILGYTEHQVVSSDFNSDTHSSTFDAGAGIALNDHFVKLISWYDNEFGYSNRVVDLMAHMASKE

Q: Which results are given for `CCCc1c(O)c(O)c(C(=O)O)c2cc(Cc3ccccc3)c(C)cc12` [FX11, 2,3-dihydroxy-6-methyl-7-(phenylmethyl)-4-propylnaphthalene-1-carboxylic acid]?
A: 13C-glutamate (P493 cells [1]): increase; conversion of 13C-glucose to 13C-lactate (P493 cells [1]): reduced; oxygen consumption (P493 cells [2]): increased oxygen consumption; growth inhibition [3]: dose-dependent manner; mitochondrial membrane potential (P493 cells [4]): decreased; NADH/NAD+ ratio (P493 cells [5]): increase; AMP kinase (AMPK) activation (AMP kinase (AMPK)): activation; growth inhibition [6]: dose-dependent manner; selectivity LDHA versus LDHB or pLDH (LDHA): preferentially inhibited LDHA as opposed to LDHB or pLDH; ATP levels (P493 cells [7]): decrease in ATP levels; solubility limit in aqueous solution [8]: dose could only be doubled before the limit of FX11 in aqueous solution was reached; kidney (BUN, creatinine) or liver (aspartate aminotransferase, alanine aminotransferase, alkaline phosphatase) toxicity by blood chemistries ([9]; doses that affected tumor growth in vivo): did not reveal any evidence; hematology (cytopenia) ([9]; single agent, five animals studied): no cytopenia; body weight ([9]; treated animals): did not lose weight; lethargy, ability to eat and drink ([9]; treated animals): no lethargy or the inability to eat and drink; mode of inhibition of LDHA [10]: competitive inhibitors; also recorded: competitive inhibitor of NADH; initial serum level [11]: ~100 µM; tumor growth of P198 pancreatic tumor xenografts [12]: significant response; also recorded: effectively inhibited; ROS production (P493 cells [13]): increased; GAPDH activity (GAPDH; 74 μM): not inhibited; Ki (GAPDH; GAPDH, Michaelis-Menten kinetics, estimated): > 300 µM; cell death (7-AAD and annexin V labeling) (P493 cells [14]): increased; growth inhibition [15]: dose-dependent manner
